Columns and labels:
Assay type in all cases: cell-based
Conditions in all cases: Table D16
[1] = target: T1, WEE1 (Homo sapiens, UniProt P30291+Q96SW2); assay: Western blot degradation of WEE1 (hPBMC)
T1 construct: evaluate the effects of the compounds of the present disclosure on the expression of target proteins in cells; endogenous in cells; host or cells: hPBMC
Protocol: (§1) Conventional Western blot assay was performed to evaluate the effects of the compounds of the present disclosure on the expression of target proteins in cells.
(§2) (1) Cell Seeding and Protein Harvesting: The selected cells were processed according to the cell seeding procedure and protein harvesting procedure in Table III-2. Table III-2 Cell Seeding and Protein Harvesting Procedures
(§3) (2) To the collected supernatant, 5X SDS sample loading buffer was added, followed by denaturation at 95°C for 5 minutes. The denatured samples were then separated by SDS-PAGE electrophoresis on a polyacrylamide gel. Proteins were transferred to a nitrocellulose membrane (0.45 µm NC membrane), blocked with blocking buffer at room temperature for 1 hour, and subjected to antibody incubation and development procedures according to the antibody manufacturer's instructions (Cell Signaling Technology).
(§4) Half-Maximal Degradation Concentration value (the drug concentration required for degrading proteins by 50%, abbreviated as DC50) reads method: comparing the grayscale values of Western blot bands from drug-treated samples with those from blank DMSO-treated controls, and identifying the drug concentration range at which the grayscale value is half that of the DMSO-treated control bands.
(§5) DC50 values can be calculated using ImageJ software to measure grayscale values of Western blot bands from drug-treated samples. The concentration-response curve is fitted to estimate the drug concentration corresponding to half the grayscale value.
(§6) Target protein remaining (%) refers to the percentage of target protein remaining in hPBMC cells after treatment with protein degrader compounds.
(§7) Calculation method for target protein remaining (%): Use ImageJ software to measure grayscale values of Western blot bands from drug (protein degrader)-treated samples. The grayscale value of drug-treated bands is divided by that of internal control protein bands, and the resulting quotient is normalized to obtain the relative percentage of remaining target protein after protein degrader treatment.
(§8) Target protein degradation rate (%) = 100% - target protein remaining (%).

[2] = target: T2, IKZF1 (Homo sapiens, UniProt Q13422+Q96SW2); assay: Western blot degradation of IKZF1 (hPBMC)
T2 construct: evaluate the effects of the compounds of the present disclosure on the expression of target proteins in cells; endogenous in cells; host or cells: hPBMC
Protocol: as §1, §2, §3, §4, §5, §6, §7, §8

[3] = target: T3, IKZF2 (Homo sapiens, UniProt Q96SW2+Q9UKS7); assay: Western blot degradation of IKZF2 (hPBMC)
T3 construct: evaluate the effects of the compounds of the present disclosure on the expression of target proteins in cells; endogenous in cells; host or cells: hPBMC
Protocol: as §1, §2, §3, §4, §5, §6, §7, §8

[4] = target: T4, IKZF3 (Homo sapiens, UniProt Q96SW2+Q9UKT9); assay: Western blot degradation of IKZF3 (hPBMC)
T4 construct: evaluate the effects of the compounds of the present disclosure on the expression of target proteins in cells; endogenous in cells; host or cells: hPBMC
Protocol: as §1, §2, §3, §4, §5, §6, §7, §8

[5] = target: T5, CK1a (Homo sapiens, UniProt P48729+Q96SW2); assay: Western blot degradation of CK1a (hPBMC)
T5 construct: evaluate the effects of the compounds of the present disclosure on the expression of target proteins in cells; endogenous in cells; host or cells: hPBMC
Protocol: as §1, §2, §3, §4, §5, §6, §7, §8

[6] = target: T6, GSPT1 (Homo sapiens, UniProt P15170+Q96SW2); assay: Western blot degradation of GSPT1 (hPBMC)
T6 construct: evaluate the effects of the compounds of the present disclosure on the expression of target proteins in cells; endogenous in cells; host or cells: hPBMC
Protocol: as §1, §2, §3, §4, §5, §6, §7, §8

T3 sequence (Q9UKS7 whole entry): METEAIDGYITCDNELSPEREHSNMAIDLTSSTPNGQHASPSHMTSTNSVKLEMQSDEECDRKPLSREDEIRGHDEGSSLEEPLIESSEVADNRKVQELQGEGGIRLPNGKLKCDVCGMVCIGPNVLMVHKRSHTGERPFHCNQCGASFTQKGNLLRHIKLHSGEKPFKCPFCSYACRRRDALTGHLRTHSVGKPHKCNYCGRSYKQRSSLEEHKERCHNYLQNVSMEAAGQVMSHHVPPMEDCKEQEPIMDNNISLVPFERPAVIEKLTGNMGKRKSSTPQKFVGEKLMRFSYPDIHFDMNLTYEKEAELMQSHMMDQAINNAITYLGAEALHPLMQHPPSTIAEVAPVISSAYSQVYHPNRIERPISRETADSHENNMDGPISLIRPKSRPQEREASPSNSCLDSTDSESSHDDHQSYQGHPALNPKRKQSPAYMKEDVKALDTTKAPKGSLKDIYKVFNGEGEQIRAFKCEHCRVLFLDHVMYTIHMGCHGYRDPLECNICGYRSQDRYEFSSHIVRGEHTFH
T3 sequence (Q96SW2 whole entry): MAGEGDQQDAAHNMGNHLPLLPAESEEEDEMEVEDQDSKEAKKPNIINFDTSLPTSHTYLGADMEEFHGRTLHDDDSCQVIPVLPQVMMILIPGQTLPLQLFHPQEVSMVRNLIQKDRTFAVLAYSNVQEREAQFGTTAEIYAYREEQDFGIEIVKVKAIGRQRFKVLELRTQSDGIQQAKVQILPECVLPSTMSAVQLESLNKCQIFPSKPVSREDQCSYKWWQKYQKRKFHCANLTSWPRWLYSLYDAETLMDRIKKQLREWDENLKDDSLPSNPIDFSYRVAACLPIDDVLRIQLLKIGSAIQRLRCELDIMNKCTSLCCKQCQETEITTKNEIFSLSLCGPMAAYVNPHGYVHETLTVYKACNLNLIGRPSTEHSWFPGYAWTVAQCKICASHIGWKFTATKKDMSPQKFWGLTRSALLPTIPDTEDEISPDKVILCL
T3 sequence (Q16531 whole entry partner): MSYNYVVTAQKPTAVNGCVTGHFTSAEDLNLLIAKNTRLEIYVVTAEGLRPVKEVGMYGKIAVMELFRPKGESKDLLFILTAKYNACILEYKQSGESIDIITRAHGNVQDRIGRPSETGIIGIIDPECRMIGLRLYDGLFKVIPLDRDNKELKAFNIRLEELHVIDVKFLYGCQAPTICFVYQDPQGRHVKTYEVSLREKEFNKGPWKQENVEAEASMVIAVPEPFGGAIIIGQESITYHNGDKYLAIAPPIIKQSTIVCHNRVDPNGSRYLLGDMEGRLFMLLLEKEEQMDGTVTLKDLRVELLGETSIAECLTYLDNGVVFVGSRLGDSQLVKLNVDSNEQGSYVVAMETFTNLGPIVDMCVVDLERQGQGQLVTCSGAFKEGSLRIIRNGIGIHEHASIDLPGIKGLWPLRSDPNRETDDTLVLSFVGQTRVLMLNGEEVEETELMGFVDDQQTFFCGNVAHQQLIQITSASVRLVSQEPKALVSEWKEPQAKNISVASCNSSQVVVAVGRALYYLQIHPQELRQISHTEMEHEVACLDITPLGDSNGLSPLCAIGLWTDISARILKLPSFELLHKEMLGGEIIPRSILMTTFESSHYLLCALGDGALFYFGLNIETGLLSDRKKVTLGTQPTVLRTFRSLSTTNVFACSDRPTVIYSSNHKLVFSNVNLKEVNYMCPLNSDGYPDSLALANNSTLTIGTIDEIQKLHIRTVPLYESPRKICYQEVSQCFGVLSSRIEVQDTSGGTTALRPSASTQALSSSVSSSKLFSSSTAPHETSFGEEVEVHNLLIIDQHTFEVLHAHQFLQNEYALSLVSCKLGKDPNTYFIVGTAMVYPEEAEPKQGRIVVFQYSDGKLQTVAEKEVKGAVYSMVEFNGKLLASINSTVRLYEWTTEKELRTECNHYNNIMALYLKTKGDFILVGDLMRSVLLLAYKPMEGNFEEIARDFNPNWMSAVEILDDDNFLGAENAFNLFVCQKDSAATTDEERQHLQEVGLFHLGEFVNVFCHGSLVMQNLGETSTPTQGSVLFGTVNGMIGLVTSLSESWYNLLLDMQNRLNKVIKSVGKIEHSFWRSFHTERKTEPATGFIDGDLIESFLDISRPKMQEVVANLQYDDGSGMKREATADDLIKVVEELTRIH
T6 sequence (P15170 whole entry): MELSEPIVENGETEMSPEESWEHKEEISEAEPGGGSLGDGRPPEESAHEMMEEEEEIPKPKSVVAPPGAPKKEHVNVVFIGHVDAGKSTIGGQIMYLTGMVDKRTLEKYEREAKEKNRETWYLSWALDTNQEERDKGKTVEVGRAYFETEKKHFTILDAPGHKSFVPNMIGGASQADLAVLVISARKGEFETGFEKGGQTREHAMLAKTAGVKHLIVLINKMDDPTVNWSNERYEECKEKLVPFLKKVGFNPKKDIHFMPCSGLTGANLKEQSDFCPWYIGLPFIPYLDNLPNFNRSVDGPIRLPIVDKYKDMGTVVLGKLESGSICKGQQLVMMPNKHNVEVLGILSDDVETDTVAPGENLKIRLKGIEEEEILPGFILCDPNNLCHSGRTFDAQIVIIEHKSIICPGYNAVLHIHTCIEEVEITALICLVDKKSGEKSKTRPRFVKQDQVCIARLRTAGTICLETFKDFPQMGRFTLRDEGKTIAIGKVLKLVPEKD
T6 sequence (Q96SW2 whole entry): as the sequence (Q96SW2 whole entry) above
T6 sequence (Q16531 whole entry partner): as the sequence (Q16531 whole entry partner) above
T2 sequence (Q13422 whole entry): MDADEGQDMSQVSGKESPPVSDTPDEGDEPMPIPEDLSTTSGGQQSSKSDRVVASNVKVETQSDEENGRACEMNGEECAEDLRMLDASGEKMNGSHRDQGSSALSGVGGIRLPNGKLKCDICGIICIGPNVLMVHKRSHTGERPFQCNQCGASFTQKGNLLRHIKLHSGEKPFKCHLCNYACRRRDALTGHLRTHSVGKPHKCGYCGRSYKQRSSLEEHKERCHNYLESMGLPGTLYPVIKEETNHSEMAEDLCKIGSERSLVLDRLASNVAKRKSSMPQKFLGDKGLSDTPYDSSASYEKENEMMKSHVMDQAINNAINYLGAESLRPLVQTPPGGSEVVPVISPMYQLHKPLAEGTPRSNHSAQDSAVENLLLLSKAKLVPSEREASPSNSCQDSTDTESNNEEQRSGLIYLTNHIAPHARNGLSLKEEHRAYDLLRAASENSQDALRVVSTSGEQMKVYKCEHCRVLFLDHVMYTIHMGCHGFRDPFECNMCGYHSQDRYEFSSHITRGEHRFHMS
T2 sequence (Q96SW2 whole entry): as the sequence (Q96SW2 whole entry) above
T2 sequence (Q16531 whole entry partner): as the sequence (Q16531 whole entry partner) above
T5 sequence (P48729 whole entry): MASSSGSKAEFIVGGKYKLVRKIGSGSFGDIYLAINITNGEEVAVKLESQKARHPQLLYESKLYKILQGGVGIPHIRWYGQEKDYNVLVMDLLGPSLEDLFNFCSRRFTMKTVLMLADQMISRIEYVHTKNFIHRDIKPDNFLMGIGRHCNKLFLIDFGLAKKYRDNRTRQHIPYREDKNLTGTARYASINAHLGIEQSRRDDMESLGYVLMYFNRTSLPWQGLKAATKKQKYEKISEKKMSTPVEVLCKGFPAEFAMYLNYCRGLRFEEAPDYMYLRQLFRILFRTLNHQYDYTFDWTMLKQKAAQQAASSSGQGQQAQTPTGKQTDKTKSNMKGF
T5 sequence (Q96SW2 whole entry): as the sequence (Q96SW2 whole entry) above
T5 sequence (Q16531 whole entry partner): as the sequence (Q16531 whole entry partner) above
T4 sequence (Q9UKT9 whole entry): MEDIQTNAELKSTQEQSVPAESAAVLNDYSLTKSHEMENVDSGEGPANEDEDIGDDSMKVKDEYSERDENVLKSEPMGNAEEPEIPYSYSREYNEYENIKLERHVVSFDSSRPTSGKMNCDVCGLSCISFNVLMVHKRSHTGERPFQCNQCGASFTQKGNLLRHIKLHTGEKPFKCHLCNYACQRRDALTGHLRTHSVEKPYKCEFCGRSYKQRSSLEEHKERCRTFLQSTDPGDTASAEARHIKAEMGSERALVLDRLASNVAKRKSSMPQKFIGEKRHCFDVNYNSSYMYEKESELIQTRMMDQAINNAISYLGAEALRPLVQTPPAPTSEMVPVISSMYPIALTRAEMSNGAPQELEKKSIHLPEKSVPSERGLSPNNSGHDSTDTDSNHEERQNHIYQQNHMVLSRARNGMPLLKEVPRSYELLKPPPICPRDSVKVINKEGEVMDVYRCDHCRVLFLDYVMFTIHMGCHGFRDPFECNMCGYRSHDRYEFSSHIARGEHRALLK
T4 sequence (Q96SW2 whole entry): as the sequence (Q96SW2 whole entry) above
T4 sequence (Q16531 whole entry partner): as the sequence (Q16531 whole entry partner) above

Row | SMILES | Degradation of substrate protein WEE1 (substrate protein remaining %) [1] | Degradation of substrate protein IKZF1 (substrate protein remaining %) [2] | Degradation of substrate protein IKZF2 (substrate protein remaining %) [3] | Degradation of substrate protein IKZF3 (substrate protein remaining %) [4] | Degradation of substrate protein CKla (substrate protein remaining %) [5] | Degradation of substrate protein GSPT1 (substrate protein remaining %) [6]
1 | CC(C)(C)[Si](C)(C)OCc1ccncc1NC1CCC(=O)NC1=O (stereo not drawn) [GT-07638, 3-((4-(((tert-Butyldimethylsilyl)oxy)methyl)pyridin-3-yl)amino)piperidine-2,6-dione] | A (A is defined as 0% ≤ substrate protein remaining % ≤ 80%) | B (B is defined as substrate protein remaining % > 80%) | A (A is defined as 0% ≤ substrate protein remaining % ≤ 80%) | A (A is defined as 0% ≤ substrate protein remaining % ≤ 80%) | B (B is defined as substrate protein remaining % > 80%) | A (A is defined as 0% ≤ substrate protein remaining % ≤ 80%)
2 | CC(C)(C)[Si](C)(C)OCc1cc(NC2CCC(=O)NC2=O)ncc1F (stereo not drawn) [GT-07724, 3-((4-(((tertbutyldimethylsilyl)oxy)methyl)-5-fluoropyridin-2-yl)amino)piperidine-2,6-dione] | A (A is defined as 0% ≤ substrate protein remaining % ≤ 80%) | A (A is defined as 0% ≤ substrate protein remaining % ≤ 80%) | A (A is defined as 0% ≤ substrate protein remaining % ≤ 80%) | A (A is defined as 0% ≤ substrate protein remaining % ≤ 80%) | B (B is defined as substrate protein remaining % > 80%) | A (A is defined as 0% ≤ substrate protein remaining % ≤ 80%)
3 | O=C1CCC(c2cnc(F)c(CO)c2)C(=O)N1 (stereo not drawn) [GT-07074, 3-(6-Fluoro-5-(hydroxymethyl)pyridin-3-yl)piperidine-2,6-dione] | B (B is defined as substrate protein remaining % > 80%) | B (B is defined as substrate protein remaining % > 80%) | A (A is defined as 0% ≤ substrate protein remaining % ≤ 80%) | A (A is defined as 0% ≤ substrate protein remaining % ≤ 80%) | B (B is defined as substrate protein remaining % > 80%) | A (A is defined as 0% ≤ substrate protein remaining % ≤ 80%)
4 | O=C1CCC(c2ccc(CO)cn2)C(=O)N1 (stereo not drawn) [GT-07075, 3-(5-(Hydroxymethyl)pyridin-2-yl)piperidine-2,6-dione] | B (B is defined as substrate protein remaining % > 80%) | B (B is defined as substrate protein remaining % > 80%) | A (A is defined as 0% ≤ substrate protein remaining % ≤ 80%) | A (A is defined as 0% ≤ substrate protein remaining % ≤ 80%) | B (B is defined as substrate protein remaining % > 80%) | A (A is defined as 0% ≤ substrate protein remaining % ≤ 80%)
5 | O=C1CCN(c2ccc(CCl)cn2)C(=O)N1 [GT-07009, 1-(5-(Chloromethyl)pyridin-2-yl)dihydropyrimidine-2,4(1H,3H)-dione] | B (B is defined as substrate protein remaining % > 80%) | B (B is defined as substrate protein remaining % > 80%) | B (B is defined as substrate protein remaining % > 80%) | B (B is defined as substrate protein remaining % > 80%) | A (A is defined as 0% ≤ substrate protein remaining % ≤ 80%) | B (B is defined as substrate protein remaining % > 80%)

Source: patent EP4678638A1, “NEW E3 UBIQUITIN LIGASE LIGAND, PROTEIN DEGRADATION AGENT AND USE THEREOF” (priority 2023, dated 2024)
